Laboratory results: the supplement of paper PMC10307832

Experiments:
Test in all cases: relative viability (nuclei count vs DMSO), 5 days (fraction); higher = more cells survive
R406 + Bortezomib = compound: COc1cc(Nc2ncc(F)c(Nc3ccc4c(n3)NC(=O)C(C)(C)O4)n2)cc(OC)c1OC [R406] + CC(C)C[C@H](NC(=O)[C@H](Cc1ccccc1)NC(=O)c1cnccn1)B(O)O [Bortezomib] (partner 0.002 µM)
Outline: (§1)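 A single step with final 0.05% Triton X-100, 1% formaldehyde and 1 ug/ml Hoechst fixed the cells and stained nuclei 5 days after treatment. Lung cancer cell lines in 1536-well plates had been treated by pin tool the day after seeding with one drug alone or a fixed anchor-drug dose plus five library-drug doses (not always all listed) in √10 steps, and nuclei were counted on 4× images. Relative viability is the ratio of nuclei in treated wells to nuclei in vehicle wells, taken as the median of duplicate plates.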

R406 + Vorinostat = compound: COc1cc(Nc2ncc(F)c(Nc3ccc4c(n3)NC(=O)C(C)(C)O4)n2)cc(OC)c1OC [R406] + O=C(CCCCCCC(=O)Nc1ccccc1)NO [Vorinostat] (partner 1 µM)
Outline: as §1

Daporinad + Phenformin = compound: O=C(/C=C/c1cccnc1)NCCCCC1CCN(C(=O)c2ccccc2)CC1 [Daporinad] + N=C(N)NC(=N)NCCc1ccccc1 [Phenformin] (partner 250 µM)
Outline: as §1

Daporinad + AZD7762 = compound: O=C(/C=C/c1cccnc1)NCCCCC1CCN(C(=O)c2ccccc2)CC1 [Daporinad] + NC(=O)Nc1cc(-c2cccc(F)c2)sc1C(=O)N[C@H]1CCCNC1 [AZD7762] (partner 0.2 µM)
Outline: as §1

Cell Line	relative viability (R406 + Bortezomib; first compound 0.08 µM)	relative viability (R406 + Bortezomib; first compound 0.253 µM)	relative viability (R406 + Bortezomib; first compound 0.8 µM)	relative viability (R406 + Bortezomib; first compound 2.53 µM)	relative viability (R406 + Bortezomib; first compound 8 µM)	relative viability (R406 + Vorinostat; first compound 0.08 µM)	relative viability (R406 + Vorinostat; first compound 0.253 µM)	relative viability (R406 + Vorinostat; first compound 0.8 µM)	relative viability (R406 + Vorinostat; first compound 2.53 µM)	relative viability (R406 + Vorinostat; first compound 8 µM)	relative viability (Daporinad + Phenformin; first compound 0.0005 µM)	relative viability (Daporinad + Phenformin; first compound 0.001581 µM)	relative viability (Daporinad + Phenformin; first compound 0.005 µM)	relative viability (Daporinad + Phenformin; first compound 0.01581 µM)	relative viability (Daporinad + AZD7762; first compound 0.0005 µM)	relative viability (Daporinad + AZD7762; first compound 0.001581 µM)	relative viability (Daporinad + AZD7762; first compound 0.005 µM)	relative viability (Daporinad + AZD7762; first compound 0.01581 µM)
HCC-44	0.927	1.07	1	0.312	0.603	1.07	1.1	1.1	1.04	1.22	0.255	0.189	0.233	0.182	1.02	0.967	0.994	1.03
HCC-827	1.06	1.12	1.12	1.11	1.02	0.791	0.853	0.892	0.788	0.817	0.442	0.478	0.421	0.461	0.219	0.23	0.263	0.287
NCI-H2342						0.694	0.84	0.699	0.752	0.74	0.62	0.61	0.595	0.546	0.508	0.457	0.612	0.532
NCI-H2347	1.07	1.25	1.19	0.815	0.642	0.586	0.651	0.767	0.383	0.397	0.53	0.319	0.447	0.379	0.785	0.814	0.726	0.547
PC-3 [JPC-3]	0.916	0.866	0.927	0.758	0.755	0.811	1.01	0.861	0.546	0.381	0.494	0.481	0.478	0.471	0.734	0.829	0.9	0.836
NCI-H1651	0.921	1.06	0.9	0.935	0.948	0.557	0.612	0.615	0.547	0.545	0.299	0.381	0.433	0.329	0.486	0.475	0.554	0.477
HARA	1.07	1.21	1.15	0.991	0.389	0.66	0.606	0.515	0.489	0.515	0.412	0.397	0.426	0.114	0.232	0.522	0.299	0.16
NCI-H1650	0.244	0.214	0.18	0.208	0.197	0.635	0.634	0.664	0.396	0.389	0.406	0.55	0.416	0.223				
NCI-H1395						0.633	0.731	0.843	0.399	0.417	0.431	0.421	0.471	0.482	0.386	0.391	0.441	0.384
NCI-H441		0.383	0.713		0.331	0.669	0.754	0.76	0.905	0.699	0.813	0.82	0.883	0.734	1.34	1.34	1.52	1.25
LU99A	1.07	0.968	1.26		0.512	0.519	0.484	0.553	0.361	0.312	0.833	0.981	0.946	0.93	0.31	0.281	0.377	0.307
NCI-H1355	1.23	1.29	1.44	1.02	0.957	0.72	0.71	0.733	0.385	0.439	0.454	0.506	0.542	0.508	0.768	0.799	0.869	0.675
HCC-78	0.491	0.541	0.51	0.306	0.241	0.452	0.426	0.412	0.29	0.331	0.619		0.839	0.819	0.6	0.626	0.53	0.796
NCI-H1563	0.764	1	0.873	0.523	0.574						0.715	0.744	0.755	0.626				
LK-2						0.205	0.404	0.293	0.291	0.237	0.651	0.305	0.314	0.159	0.523	0.36	0.199	0.141
COR-L23	0.942	1.14	1.06	0.907	0.523	0.483	0.433	0.424	0.279	0.244	0.422	0.463	0.317	0.194				
